In brackets after ≈: the same amount, converted by molar mass.
Columns and labels:
Type in all cases: cell-based
[1] = tested on: E. coli (wild-type) BW25113; test: Broth microdilution MIC, E. coli wild-type; conditions: Escherichia coli, iron-depleted CAMHB, OD600 ≤0.15, read-out: MIC (μg/mL) Gram-negative EC
Experimental: (§1) The test compounds including vancomycin hydrochloride were supplied as a 6.4 mg/mL solution in 100% dimethyl sulfoxide (DMSO) aliquoted into individual wells of a 96-well plate (50 μL per well). […] Standardized inocula were added to the MIC test plates, which were incubated for the prescribed times at 35° C. The N. gonorrhoeae strain was incubated in an atmosphere containing 5% CO2.
(§2) The final optical density of each well at 600 nm was measured using a Tecan Spark plate reader. The compound concentration versus OD600 data were then curve fit using custom software. An MIC value was defined as the lowest compound concentration that led to an OD600 value≤0.15 for the E. coli, K. pneumoniae, P. aeruginosa, A. baumannii, or S. aureus strains. For the N. gonorrhoeae strain, an OD600 value≤0.19 was used as a cutoff to define an MIC value; this higher cut-off value was required because the N. gonorrhoeae MIC plates were covered with plastic seals that increased the background OD600 value.
(§3) JMI Laboratories followed current CLSI quality assurance practices when performing the susceptibility tests. MIC values were validated by concurrently testing the CLSI-recommended ATCC QC reference strains S. aureus ATCC 29213 and K. pneumoniae ATCC 700603. The inoculum density during susceptibility testing was monitored by bacterial colony counts. Where applicable, QC ranges for tested reference strains were those ranges approved or published by CLSI for testing in CAMHB. […] Importantly, the CLSI reference method for testing N. gonorrhoeae is the agar dilution MIC method, which was not used here. Thus, CLSI MIC QC ranges for N. gonorrhoeae could not be applied to the antimicrobials studied here.
(§4) Abbreviations: EC, E. coli (wild-type) BW25113; EC efflux^−, E. coli (tolC) JW5503-1; KPN, K. pneumoniae ATCC 700603; PSA, P. aeruginosa PAO1; PSA efflux^−, P. aeruginosa (multi-pump-gene mutant) PAM1626; ACB, A. baumannii JMI #1186154; GC, N. gonorrhoeae WHO-Z; SA, S. aureus ATCC 29213. Broth microdilution MIC values were measured in iron-depleted CAMHB for all strains except for GC, which was tested in fastidious broth.

[2] = tested on: K. pneumoniae ATCC 700603; test: Broth microdilution MIC, K. pneumoniae; conditions: Klebsiella pneumoniae, ATCC700603, read-out: MIC (μg/mL) Gram-negative KPN
Experimental: as §1, §2, §3, §4

[3] = tested on: A. baumannii JMI #1186154; test: Broth microdilution MIC, A. baumannii; conditions: Acinetobacter baumannii, iron-depleted CAMHB, OD600 ≤0.15, read-out: MIC (μg/mL) Gram-negative ACB
Experimental: as §1, §2, §3, §4

[4] = tested on: E. coli (tolC) JW5503-1; test: Broth microdilution MIC, E. coli efflux-deficient (tolC); conditions: Escherichia coli, read-out: MIC (μg/mL) Gram-negative EC Efflux
Experimental: as §1, §2, §3, §4

[5] = tested on: S. aureus ATCC 29213; test: Broth microdilution MIC, S. aureus; conditions: Staphylococcus aureus, ATCC29213, iron-depleted CAMHB, OD600 ≤0.15, read-out: MIC (μg/mL) Gram positive SA
Experimental: as §1, §2, §3, §4

[6] = tested on: P. aeruginosa PAO1; test: Broth microdilution MIC, P. aeruginosa; conditions: Pseudomonas aeruginosa, iron-depleted CAMHB, OD600 ≤0.15, read-out: MIC (μg/mL) Gram-negative PSA
Experimental: as §1, §2, §3, §4

[7] = tested on: N. gonorrhoeae WHO-Z; test: Broth microdilution MIC, N. gonorrhoeae; conditions: Neisseria gonorrhoeae, read-out: MIC (μg/mL) Gram-negative GC
Experimental: as §1, §2, §3, §4

[8] = tested on: P. aeruginosa (multi-pump-gene mutant) PAM1626; test: Broth microdilution MIC, P. aeruginosa efflux-deficient; conditions: Pseudomonas aeruginosa, read-out: MIC (μg/mL) Gram-negative PSA Efflux
Experimental: as §1, §2, §3, §4

Structure (SMILES) | MIC [1] | MIC [2] | MIC [3] | MIC [4] | MIC [5] | MIC [6] | MIC [7] | MIC [8]
CN[C@H](CC(C)C)C(=O)N[C@H]1C(=O)N[C@@H](CC(N)=O)C(=O)N[C@H]2C(=O)N[C@H]3C(=O)N[C@H](C(=O)N[C@H](C(=O)NCCCCNC(=O)c4ccc(O)c(O)c4Cl)c4cc(O)cc(O)c4-c4cc3ccc4O)[C@H](O)c3ccc(c(Cl)c3)Oc3cc2cc(c3O[C@@H]2O[C@H](CO)C(O)C(O)[C@H]2O[C@H]2CC(C)(N)[C@H](O)[C@H](C)O2)Oc2ccc(cc2Cl)[C@H]1O (some centres unmarked) [Compound 5] | 8 µg/mL (≈ 4.73 µM) | > 64 µg/mL | 1 µg/mL (≈ 0.592 µM) | > 64 µg/mL | 4 µg/mL (≈ 2.37 µM) | > 64 µg/mL | > 64 µg/mL | > 64 µg/mL
CN[C@H](CC(C)C)C(=O)N[C@H]1C(=O)N[C@@H](CC(N)=O)C(=O)N[C@H]2C(=O)N[C@H]3C(=O)N[C@H](C(=O)N[C@H](C(=O)NCCCCCNC(=O)c4ccc(O)c(O)c4Cl)c4cc(O)cc(O)c4-c4cc3ccc4O)[C@H](O)c3ccc(c(Cl)c3)Oc3cc2cc(c3O[C@@H]2O[C@H](CO)C(O)C(O)[C@H]2O[C@H]2CC(C)(N)[C@H](O)[C@H](C)O2)Oc2ccc(cc2Cl)[C@H]1O (some centres unmarked) [Compound 6] | 64 µg/mL (≈ 37.6 µM) | > 64 µg/mL | 4 µg/mL (≈ 2.35 µM) | > 64 µg/mL | 4 µg/mL (≈ 2.35 µM) | > 64 µg/mL | > 64 µg/mL | > 64 µg/mL
CN[C@H](CC(C)C)C(=O)N[C@H]1C(=O)N[C@@H](CC(N)=O)C(=O)N[C@H]2C(=O)N[C@H]3C(=O)N[C@H](C(=O)N[C@H](C(=O)NCCCCCCNC(=O)c4ccc(O)c(O)c4Cl)c4cc(O)cc(O)c4-c4cc3ccc4O)[C@H](O)c3ccc(c(Cl)c3)Oc3cc2cc(c3O[C@@H]2O[C@H](CO)C(O)C(O)[C@H]2O[C@H]2CC(C)(N)[C@H](O)[C@H](C)O2)Oc2ccc(cc2Cl)[C@H]1O (some centres unmarked) [Compound 7] | 64 µg/mL (≈ 37.3 µM) | > 64 µg/mL | 1 µg/mL (≈ 0.582 µM) | 64 µg/mL (≈ 37.3 µM) | 4 µg/mL (≈ 2.33 µM) | > 64 µg/mL | > 64 µg/mL | > 64 µg/mL
CN[C@H](CC(C)C)C(=O)N[C@H]1C(=O)N[C@@H](CC(N)=O)C(=O)N[C@H]2C(=O)N[C@H]3C(=O)N[C@H](C(=O)N[C@H](C(=O)NCCCCCCCNC(=O)c4ccc(O)c(O)c4Cl)c4cc(O)cc(O)c4-c4cc3ccc4O)[C@H](O)c3ccc(c(Cl)c3)Oc3cc2cc(c3O[C@@H]2O[C@H](CO)C(O)C(O)[C@H]2O[C@H]2CC(C)(N)[C@H](O)[C@H](C)O2)Oc2ccc(cc2Cl)[C@H]1O (some centres unmarked) [Compound 8] | 64 µg/mL (≈ 37 µM) | > 64 µg/mL | 2 µg/mL (≈ 1.15 µM) | 64 µg/mL (≈ 37 µM) | 4 µg/mL (≈ 2.31 µM) | > 64 µg/mL | > 64 µg/mL | > 64 µg/mL
CN[C@H](CC(C)C)C(=O)N[C@H]1C(=O)N[C@@H](CC(N)=O)C(=O)N[C@H]2C(=O)N[C@H]3C(=O)N[C@H](C(=O)N[C@H](C(=O)NCCCCCCCCNC(=O)c4ccc(O)c(O)c4Cl)c4cc(O)cc(O)c4-c4cc3ccc4O)[C@H](O)c3ccc(c(Cl)c3)Oc3cc2cc(c3O[C@@H]2O[C@H](CO)C(O)C(O)[C@H]2O[C@H]2CC(C)(N)[C@H](O)[C@H](C)O2)Oc2ccc(cc2Cl)[C@H]1O (some centres unmarked) [Compound 9] | 64 µg/mL (≈ 36.7 µM) | > 64 µg/mL | 8 µg/mL (≈ 4.58 µM) | 64 µg/mL (≈ 36.7 µM) | 4 µg/mL (≈ 2.29 µM) | > 64 µg/mL | > 64 µg/mL | > 64 µg/mL
CN[C@H](CC(C)C)C(=O)N[C@H]1C(=O)N[C@@H](CC(N)=O)C(=O)N[C@H]2C(=O)N[C@H]3C(=O)N[C@H](C(=O)N[C@H](C(=O)NCCCNC(=O)c4cccc(O)c4O)c4cc(O)cc(O)c4-c4cc3ccc4O)[C@H](O)c3ccc(c(Cl)c3)Oc3cc2cc(c3O[C@@H]2O[C@H](CO)C(O)C(O)[C@H]2O[C@H]2CC(C)(N)[C@H](O)[C@H](C)O2)Oc2ccc(cc2Cl)[C@H]1O (some centres unmarked) [Compound 12] | 64 µg/mL (≈ 39 µM) | > 64 µg/mL | 4 µg/mL (≈ 2.44 µM) | 64 µg/mL (≈ 39 µM) | 2 µg/mL (≈ 1.22 µM) | > 64 µg/mL | > 64 µg/mL | > 64 µg/mL
CN[C@H](CC(C)C)C(=O)N[C@H]1C(=O)N[C@@H](CC(N)=O)C(=O)N[C@H]2C(=O)N[C@H]3C(=O)N[C@H](C(=O)N[C@H](C(=O)NCCCCNC(=O)c4cccc(O)c4O)c4cc(O)cc(O)c4-c4cc3ccc4O)[C@H](O)c3ccc(c(Cl)c3)Oc3cc2cc(c3O[C@@H]2O[C@H](CO)C(O)C(O)[C@H]2O[C@H]2CC(C)(N)[C@H](O)[C@H](C)O2)Oc2ccc(cc2Cl)[C@H]1O (some centres unmarked) [Compound 13] | 64 µg/mL (≈ 38.7 µM) | > 64 µg/mL | 4 µg/mL (≈ 2.42 µM) | > 64 µg/mL | 2 µg/mL (≈ 1.21 µM) | > 64 µg/mL | > 64 µg/mL | > 64 µg/mL
CNC(CC(C)C)C(=O)NC1C(=O)NC(CC(N)=O)C(=O)NC2C(=O)NC3C(=O)NC(C(=O)N[C@H](C(=O)NCCc4cn(CCNC(=O)c5cccc(O)c5O)nn4)c4cc(O)cc(O)c4-c4cc3ccc4O)C(O)c3ccc(c(Cl)c3)Oc3cc2cc(c3OC2OC(CO)C(O)C(O)C2OC2CC(C)(N)C(O)C(C)O2)Oc2ccc(cc2Cl)C1O (some centres unmarked) [Compound 15] | > 64 µg/mL | > 64 µg/mL | 16 µg/mL (≈ 9.29 µM) | > 64 µg/mL | 4 µg/mL (≈ 2.32 µM) | > 64 µg/mL | > 64 µg/mL | > 64 µg/mL
CN[C@H](CC(C)C)C(=O)N[C@H]1C(=O)N[C@@H](CC(N)=O)C(=O)N[C@H]2C(=O)N[C@H]3C(=O)N[C@H](C(=O)N[C@H](C(=O)NCCCNS(=O)(=O)c4ccc(O)c(O)c4)c4cc(O)cc(O)c4-c4cc3ccc4O)[C@H](O)c3ccc(c(Cl)c3)Oc3cc2cc(c3O[C@@H]2O[C@H](CO)C(O)C(O)[C@H]2O[C@H]2CC(C)(N)[C@H](O)[C@H](C)O2)Oc2ccc(cc2Cl)[C@H]1O (some centres unmarked) [Compound 16] | 32 µg/mL (≈ 19.1 µM) | > 64 µg/mL | 4 µg/mL (≈ 2.38 µM) | 64 µg/mL (≈ 38.2 µM) | 4 µg/mL (≈ 2.38 µM) | > 64 µg/mL | > 64 µg/mL | > 64 µg/mL
CN[C@H](CC(C)C)C(=O)N[C@H]1C(=O)N[C@@H](CC(N)=O)C(=O)N[C@H]2C(=O)N[C@H]3C(=O)N[C@H](C(=O)N[C@H](C(=O)NCCCCNS(=O)(=O)c4ccc(O)c(O)c4)c4cc(O)cc(O)c4-c4cc3ccc4O)[C@H](O)c3ccc(c(Cl)c3)Oc3cc2cc(c3O[C@@H]2O[C@H](CO)C(O)C(O)[C@H]2O[C@H]2CC(C)(N)[C@H](O)[C@H](C)O2)Oc2ccc(cc2Cl)[C@H]1O (some centres unmarked) [Compound 17] | 32 µg/mL (≈ 18.9 µM) | > 64 µg/mL | 2 µg/mL (≈ 1.18 µM) | 64 µg/mL (≈ 37.8 µM) | 2 µg/mL (≈ 1.18 µM) | > 64 µg/mL | > 64 µg/mL | > 64 µg/mL

— patent publication US20260092083A1, “VANCOMYCIN DERIVATIVES WITH SIDEROPHORE MODIFICATION AS NOVEL REPURPOSED ANTIBIOTICS TO COMBAT GRAM-NEGATIVE BACTERIAL INFECTION” (priority 2023, published 2026)
